Patent EP1763509B1, “ALPHA-HELICAL MIMETICS” (THE WALTER AND ELIZA HALL INSTITUTE OF MEDICAL RESEARCH, priority 2004, dated 2006)

Assays:
Mcl-1 = Mcl-1 (Homo sapiens, UniProt Q07820); assay: Alphascreen GST competition binding assay, benzoylurea compounds vs Biotinylated Bak BH3 peptide on GST tagged Mcl-1 protein; conditions: GST tagged Mcl-1 protein 0.4 nM, Biotinylated Bak BH3 peptide 4.0 nM, 4 hours at room temperature; n.b. = not binding in the assay conditions
Bcl-xLΔ25 = target: T1, Bcl-xLΔ25 (Homo sapiens, UniProt Q07817); assay: Alphascreen GST competition binding assay, benzoylurea compounds vs Biotinylated Bim BH3-26 peptide on GST tagged Bcl-xL ΔC25 protein; conditions: GST tagged Bcl-xL ΔC25 protein 0.6 nM, Biotinylated Bim BH3-26 peptide 5.0 nM, 4 hours at room temperature; n.b. = not binding in the assay conditions
T1 construct: GST tagged Bcl-xL ΔC25 protein
T1 sequence (Q07817 1-208 limits assumed, stated change not applied): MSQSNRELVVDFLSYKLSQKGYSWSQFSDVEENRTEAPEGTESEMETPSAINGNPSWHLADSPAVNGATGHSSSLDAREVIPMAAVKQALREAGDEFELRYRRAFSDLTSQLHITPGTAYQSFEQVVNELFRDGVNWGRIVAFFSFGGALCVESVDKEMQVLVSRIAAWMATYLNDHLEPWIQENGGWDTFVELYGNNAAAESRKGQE

Bcl-wΔ29 = target: T2, Bcl-wΔ29 (Homo sapiens, UniProt Q92843); assay: Alphascreen GST competition binding assay, benzoylurea compounds vs Biotinylated Bim BH3-26 peptide on GST tagged Bclw ΔC29 protein; conditions: GST tagged Bclw ΔC29 protein 0.05 nM, Biotinylated Bim BH3-26 peptide 3.0 nM, 4 hours at room temperature; values marked a tested in a separate experiment; n.b. = not binding in the assay conditions
T2 construct: GST tagged Bclw ΔC29 protein
T2 sequence (Q92843 1-164 limits assumed): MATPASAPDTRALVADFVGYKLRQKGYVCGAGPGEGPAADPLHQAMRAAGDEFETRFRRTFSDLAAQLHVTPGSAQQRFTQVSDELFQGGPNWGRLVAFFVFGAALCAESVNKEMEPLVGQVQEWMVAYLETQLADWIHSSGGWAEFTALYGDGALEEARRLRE

Chain of Mcl-1 (Q07820 whole entry, species assumed): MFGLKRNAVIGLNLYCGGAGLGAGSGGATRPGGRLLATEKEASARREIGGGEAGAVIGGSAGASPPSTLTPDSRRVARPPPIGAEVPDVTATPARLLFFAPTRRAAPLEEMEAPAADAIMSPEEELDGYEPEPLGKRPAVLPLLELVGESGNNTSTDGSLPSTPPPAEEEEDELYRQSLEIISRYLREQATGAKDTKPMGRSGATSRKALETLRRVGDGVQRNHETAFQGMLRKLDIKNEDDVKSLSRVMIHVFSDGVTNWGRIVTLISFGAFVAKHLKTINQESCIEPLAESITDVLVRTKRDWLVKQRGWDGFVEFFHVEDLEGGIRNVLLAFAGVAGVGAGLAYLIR

Structure (SMILES)	Mcl-1 IC50 (µM) (Mcl-1)	IC50 (Bcl-xLΔ25) [µM]	IC50 (Bcl-wΔ29) [µM]	IC50 (Mcl-1) [µM]	Bcl-xLΔ25 IC50 (µM) (Bcl-xLΔ25)
CCCN(C(=O)N[C@@H](CSCC(C)C)C(=O)O)C(=O)c1cccc(C#Cc2cccc(F)c2)c1 [(140)]	n.b.^b	44			
CC(C)N(C(=O)N[C@@H](CSCc1ccccc1)C(=O)O)C(=O)c1cccc(-c2ccccc2)c1 [(5)]		153	266		
CCCN(C(=O)Cc1ccccc1)C(=O)N[C@@H](CSCc1ccccc1)C(=O)O [(105)]		183	71	164	
O=C(O)[C@H](CSCc1ccccc1)NC(=O)N(C(=O)c1cccc(-c2ccccc2)c1)C1CCCCC1 [(6)]		54.2	73		
CCCCN(C(=O)N[C@@H](CSCc1ccccc1)C(=O)O)C(=O)c1cccc(-c2ccccc2)c1 [(2)]		56.8	57		
CCCCSC[C@H](NC(=O)N(Cc1ccccc1)C(=O)c1cccc(CC(C)C)c1)C(=O)O [(111)]		115	36	86	
CC(C)Cc1cccc(C(=O)N(Cc2ccccc2)C(=O)N[C@@H](CSCc2ccccc2)C(=O)O)c1 [(107)]		70	37	73	
CC(C)CCc1cccc(C(=O)N(Cc2ccccc2)C(=O)N[C@@H](CSCc2ccccc2)C(=O)O)c1 [(109)]		81	29	65	
O=C(O)[C@H](CSCc1ccccc1)NC(=O)N(CC1CCCCC1)C(=O)c1cccc(-c2ccccc2)c1 [(7)]		45.2	37		
CCCN(C(=O)N[C@@H](CSCC(C)C)C(=O)O)C(=O)c1cccc(C#Cc2ccc(C)cc2)c1 [(145)]		48		92	
CCCN(C(=O)N[C@@H](CSCC(C)C)C(=O)O)C(=O)c1cccc(C#Cc2ccc(OC)cc2)c1 [(147)]		50		85	
CCCN(C(=O)N[C@@H](CSCC(C)C)C(=O)NS(=O)(=O)c1ccc(Br)cc1)C(=O)c1cccc(C#Cc2ccccc2)c1 [(152)]		48			
CCCN(C(=O)N[C@@H](CSCc1ccccc1-c1ccccc1)C(=O)O)C(=O)c1cccc(-c2ccccc2Cl)c1 [(103)]		53	18	36	
CCCN(C(=O)N[C@@H](CSCc1ccccc1)C(=O)O)C(=O)c1ccc(CCc2ccccc2)cc1 [(89)]		86	50	107	
CC(C)CN(C(=O)N[C@@H](CSCc1ccccc1)C(=O)O)C(=O)c1cccc(-c2ccccc2)c1 [(3)]		65.8	65		
CCCN(C(=O)N[C@@H](CCSC)CC(=O)O)C(=O)c1cccc(C#Cc2ccccc2)c1 [(121)]		141			
CCCN(C(=O)N[C@@H](CSCC(C)C)C(=O)NS(=O)(=O)c1ccc(-c2ccccc2)cc1)C(=O)c1cccc(C#Cc2ccccc2)c1 [(154)]		42			
CCCN(C(=O)N[C@@H](CCc1ccccc1)CC(=O)O)C(=O)c1cccc(C#Cc2ccccc2)c1 [(120)]		44			

Structure (SMILES)	Mcl-1 IC50 (µM) (Mcl-1)	IC50 (Bcl-xLΔ25) [µM]	IC50 (Bcl-wΔ29) [µM]	IC50 (Mcl-1) [µM]	Bcl-xLΔ25 IC50 (µM) (Bcl-xLΔ25)
CCCCSC[C@H](NC(=O)N(CCc1ccccc1)C(=O)c1cccc(CC(C)C)c1)C(=O)O [(112)]		119	40	112	
CCCN(C(=O)N[C@@H](CSCC(C)C)C(=O)O)C(=O)c1cccc(C#Cc2ccc(Oc3ccccc3)cc2)c1 [(148)]		172		71	
CCCN(C(=O)N[C@@H](CSCc1ccccc1)C(=O)O)C(=O)c1ccc(/C=C/c2ccccc2)cc1 [(86)]	n.b.^b	283	82		
CCCN(C(=O)N[C@@H](CSCC(C)C)C(=O)O)C(=O)c1cccc(C#Cc2cccnc2)c1 [(151)]		212			
CCCN(C(=O)N[C@@H](CSCC(C)C)C(=O)O)C(=O)c1cccc(C#Cc2ccccc2OC)c1 [(146)]	n.b.^b	46			
CCCCSC[C@H](NC(=O)N(Cc1ccccc1)C(=O)c1cccc(CCC(C)C)c1)C(=O)O [(113)]		94	28	65	
CCCN(C(=O)N[C@@H](CSCCCc1ccccc1)C(=O)O)C(=O)c1cccc(-c2ccccc2Cl)c1 [(102)]		50	18	51	
CCCN(C(=O)N[C@@H](CSCc1ccccc1)C(=O)O)C(=O)c1cccc(-c2ccccc2)c1 [(1)]		70.1	38		
CCCN(C(=O)Cc1cccc(-c2ccccc2)c1)C(=O)N[C@@H](CSCc1ccccc1)C(=O)O [(104)]		187	205	267	
CCCCSC[C@H](NC(=O)N(CCc1ccccc1)C(=O)c1cccc(CCC(C)C)c1)C(=O)O [(114)]		85	32	58	
CCCCN(C(=O)N[C@@H](CSCC(C)C)C(=O)O)C(=O)c1cccc(C#Cc2ccccc2)c1 [(130)]		39			
CCC(C)N(C(=O)N[C@@H](CSCc1ccccc1)C(=O)O)C(=O)c1cccc(-c2ccccc2)c1 (mixture of isomers) [(4)]		148	149		
CCCN(C(=O)N[C@@H](CSCC(C)C)C(=O)O)C(=O)c1cccc(C#Cc2ccc(C(C)(C)C)cc2)c1 [(149)]		107			
CC(C)CCc1cccc(C(=O)N(CCc2ccccc2)C(=O)N[C@@H](CSCc2ccccc2)C(=O)O)c1 [(110)]		85	37	64	
O=C(O)[C@H](CSCc1ccccc1)NC(=O)N(Cc1ccc(Cl)c(Cl)c1)C(=O)c1ccc(-c2ccccc2)cc1 [(85)]			40	95	n.b.^b
CCCN(C(=O)N[C@@H](CSCc1ccccc1-c1ccccc1)C(=O)O)C(=O)c1cccc(C#Cc2ccccc2)c1 [(96)]		153	52	133	
CC(C)Cc1cccc(C(=O)N(CCc2ccccc2)C(=O)N[C@@H](CSCc2ccccc2)C(=O)O)c1 [(108)]		87	49	72	

Second part, the compound after the results:

Mcl-1 IC50 (µM) (Mcl-1)	IC50 (Bcl-xLΔ25) [µM]	IC50 (Bcl-wΔ29) [µM]	IC50 (Mcl-1) [µM]	Bcl-xLΔ25 IC50 (µM) (Bcl-xLΔ25)	Structure (SMILES)
	26		146		CCCN(C(=O)N[C@@H](CSCC(C)C)C(=O)O)C(=O)c1cccc(C#Cc2ccc(Cl)cc2)c1 [(138)]
	39		66		CCCN(C(=O)N[C@@H](CSCC(C)C)C(=O)O)C(=O)c1cccc(C#Cc2cccc(C)c2)c1 [(144)]
	14	35	77		COc1ccc(CN(C(=O)N[C@@H](CSCc2ccccc2)C(=O)O)C(=O)c2ccc(-c3ccccc3)cc2)cc1 [(83)]
	42	19	55		CCCN(C(=O)N[C@@H](CSCCc1ccccc1)C(=O)O)C(=O)c1cccc(-c2ccccc2Cl)c1 [(101)]
	11	27	61		O=C(O)[C@H](CSCc1ccccc1)NC(=O)N(Cc1ccc(Cl)cc1)C(=O)c1ccc(-c2ccccc2)cc1 [(84)]
	23		204		CCCN(C(=O)N[C@@H](CSCc1ccccc1)C(=O)O)C(=O)c1cccc(C#CCC(C)C)c1 [(136)]
	40				CCCN(C(=O)N[C@@H](CSCC(C)C)C(=O)NS(=O)(=O)c1cccc(Br)c1)C(=O)c1cccc(C#Cc2ccccc2)c1 [(153)]
n.b.^b	36	67			CCCN(C(=O)N[C@@H](CSC(C)C)C(=O)O)C(=O)c1cccc(C#Cc2ccccc2)c1 [(92)]
	28		80		CCCN(C(=O)N[C@@H](CSCC(C)C)C(=O)O)C(=O)c1cccc(C#Cc2ccc(Br)cc2)c1 [(139)]
	28		84		CCCN(C(=O)N[C@@H](CSCC(C)C)C(=O)O)C(=O)c1cccc(C#Cc2cccc(Cl)c2)c1 [(141)]
	33				CCCN(C(=O)N[C@@H](CSCCC(C)C)C(=O)O)C(=O)c1cccc(C#Cc2ccccc2)c1 [(124)]
	36.4	46			O=C(O)[C@H](CSCc1ccccc1)NC(=O)N(Cc1ccccc1)C(=O)c1cccc(-c2ccccc2)c1 [(8)]
	23	19	46		CCCN(C(=O)N[C@@H](CSCCc1ccccc1)C(=O)O)C(=O)c1cccc(C#Cc2ccccc2)c1 [(94)]
	37				CCCN(C(=O)N[C@@H](CSCC1CCC1)C(=O)O)C(=O)c1cccc(C#Cc2ccccc2)c1 [(129)]
	16	32	92		CCCN(C(=O)N[C@@H](CSCC(C)C)C(=O)O)C(=O)c1cccc(C#Cc2ccccc2)c1 [(91)]
	19				CCCN(C(=O)N[C@H](CC(=O)O)Cc1c[nH]c2ccccc12)C(=O)c1cccc(C#Cc2ccccc2)c1 [(116)]
	32		70		CCCN(C(=O)N[C@@H](CSCC(C)C)C(=O)O)C(=O)c1cccc(C#Cc2cccc(Br)c2)c1 [(142)]
	34				CCCN(C(=O)N[C@H](CC(=O)O)Cc1ccc2ccccc2c1)C(=O)c1cccc(C#Cc2ccccc2)c1 [(118)]
	32		57		CCCN(C(=O)N[C@@H](CSCc1ccccc1)C(=O)O)C(=O)c1cccc(C#Cc2ccccc2[N+](=O)[O-])c1 [(135)]
	9.5		132		CCCN(C(=O)N[C@@H](CSCC(C)C)C(=O)O)C(=O)c1cccc(C#Cc2ccc(F)cc2)c1 [(137)]
	26				CCCCSC[C@H](NC(=O)N(CCC)C(=O)c1cccc(C#Cc2ccccc2)c1)C(=O)O [(122)]
	40				CCCN(C(=O)N[C@@H](CSCC1CCCCC1)C(=O)O)C(=O)c1cccc(C#Cc2ccccc2)c1 [(127)]
	30		74		CCCN(C(=O)N[C@@H](CSCC(C)C)C(=O)O)C(=O)c1cccc(C#Cc2ccccc2C)c1 [(143)]
